Earlier results as cited in patent publication US12433928B2, “Therapeutic treatment for the coronavirus disease COVID-19” (priority 2020, dated 2025).

Test system: herpes simplex virus type 1 (HSV-1)
Settings: certain viruses, e.g. HSV-1 in vitro

Cc1ccc(C(C)C)c(O)c1 [thymol]
antiviral activity in medical studies: antiviral activity and effectiveness
